Molecules are shown by their SMILES. Where two headings read alike, the source gives them in different places. Bounds are passed on as bounds.

The conditions of data set [1]: rats; cited from earlier work.
The conditions of data set [2]: abstinent cocaine-dependent patients; cited from earlier work.
The target of data set [3] is T1, Dopamine Transporter (DAT) (Rattus norvegicus, UniProt P23977).
T1 construct: Synaptosomes were prepared from rat striatum for the DAT assays; from tissue; host or cells: rat striatum synaptosomes
T1 sequence (P23977 whole entry): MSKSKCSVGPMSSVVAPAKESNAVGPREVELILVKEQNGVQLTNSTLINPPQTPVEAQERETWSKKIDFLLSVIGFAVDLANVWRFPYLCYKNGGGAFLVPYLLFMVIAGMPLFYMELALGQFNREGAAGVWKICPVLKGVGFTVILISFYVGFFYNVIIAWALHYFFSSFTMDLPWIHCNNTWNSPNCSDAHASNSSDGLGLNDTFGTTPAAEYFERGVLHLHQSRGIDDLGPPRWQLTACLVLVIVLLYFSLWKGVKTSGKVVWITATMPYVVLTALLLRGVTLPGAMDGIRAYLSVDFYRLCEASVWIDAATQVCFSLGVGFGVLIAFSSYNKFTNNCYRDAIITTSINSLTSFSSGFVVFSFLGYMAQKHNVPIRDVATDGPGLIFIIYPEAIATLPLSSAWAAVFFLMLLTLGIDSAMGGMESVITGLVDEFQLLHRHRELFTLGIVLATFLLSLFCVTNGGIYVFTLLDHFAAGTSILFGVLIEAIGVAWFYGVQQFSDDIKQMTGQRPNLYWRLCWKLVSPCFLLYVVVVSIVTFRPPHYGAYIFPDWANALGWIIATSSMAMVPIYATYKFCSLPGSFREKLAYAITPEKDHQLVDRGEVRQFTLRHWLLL
The experiment in a line: DAT release assay, rat brain synaptosomes. The data set is classed as biochemical. Particulars: release of [3H]MPP+ from rat striatum synaptosomes; mean±SD (n=3). The protocol:
(§1) BAT activity was measured using synaptosomes prepared from rat brain homogenates according to the protocol developed by Rothman and co-workers (Rothman, et al., Eur. J. Pharmacol. 2002, 447(1), 51). Compounds were first screened in uptake inhibition and release assays to determine the exact mode of drug action. […] Substrate reversal experiments were conducted to validate substrate activity. The analogs were also tested for agonist activity at the serotonin-2 receptor subtypes (5-HT2A, 5-HT2B, 5-HT2C) using in vitro calcium mobilization assays in transfected HEK293 cells as previously described. These receptors are associated with the pharmacology of abused drugs, as 5-HT2A agonists are thought to be hallucinogenic while […] are associated with valvular heart disease and pulmonary hypertension; activity at these receptors would be considered off-target liabilities. On the other hand, agonists at 5-HT2C may be beneficial as potential pharmacotherapies for drug abuse and appetite suppression.
(§2) All animal studies were conducted in facilities fully accredited by the Association for the Assessment and Accreditation of Laboratory Animal Care (AAALAC) and experiments were performed in accordance with the Institutional Care and Use Committee (IACUC) of the National Institute on Drug Abuse Intramural Research Program (NIDA IRP). Rats were euthanized by CO2 narcosis, and brains were processed to yield synaptosomes as previously described (Rothman, R B, et al., Eur. J. Pharmacol. 2002, 447(1), 51.). Synaptosomes were prepared from rat striatum for the DAT assays, whereas synaptosomes were prepared from whole brain minus striatum and cerebellum for the NET and SERT assays.
(§3) For release assays, 9 nM [^3H]1-methyl-4-phenylpyridinium ([^3H]MPP+) was used as the radiolabeled substrate for DAT and NET, while 5 nM [^3H]5-HT was used as a substrate for SERT. All buffers used in the release assay methods contained 1 μM reserpine to block vesicular uptake of substrates. The selectivity of release assays was optimized for a single transporter by including unlabeled blockers to prevent the uptake of [^3H]MPP+ or [^3H]5-HT by competing transporters. Synaptosomes were preloaded with radiolabeled substrate in Krebs-phosphate buffer for 1 h (steady state). Release assays were initiated by adding 850 μL of preloaded synaptosomes to 150 μL of test drug. Release was terminated by vacuum filtration and retained radioactivity was quantified as described for uptake inhibition. Concentration-response curves were generated to yield EC50 values.
(§4) Substrate reversal experiments were conducted to validate substrate activity. The releasing ability of test compounds was tested at an EC80 concentration in the absence and presence of an uptake inhibitor (250 nM […] for DAT, 166 nM desipramine for NET, 100 nM fluoxetine for SERT).

In data set [4] the target is T2, Serotonin Transporter (SERT) (Rattus norvegicus, UniProt P31652).
T2 construct: synaptosomes were prepared from whole brain minus striatum and cerebellum for the NET and SERT assays; from tissue; host or cells: rat whole brain minus striatum and cerebellum, synaptosomes
T2 sequence (P31652 whole entry): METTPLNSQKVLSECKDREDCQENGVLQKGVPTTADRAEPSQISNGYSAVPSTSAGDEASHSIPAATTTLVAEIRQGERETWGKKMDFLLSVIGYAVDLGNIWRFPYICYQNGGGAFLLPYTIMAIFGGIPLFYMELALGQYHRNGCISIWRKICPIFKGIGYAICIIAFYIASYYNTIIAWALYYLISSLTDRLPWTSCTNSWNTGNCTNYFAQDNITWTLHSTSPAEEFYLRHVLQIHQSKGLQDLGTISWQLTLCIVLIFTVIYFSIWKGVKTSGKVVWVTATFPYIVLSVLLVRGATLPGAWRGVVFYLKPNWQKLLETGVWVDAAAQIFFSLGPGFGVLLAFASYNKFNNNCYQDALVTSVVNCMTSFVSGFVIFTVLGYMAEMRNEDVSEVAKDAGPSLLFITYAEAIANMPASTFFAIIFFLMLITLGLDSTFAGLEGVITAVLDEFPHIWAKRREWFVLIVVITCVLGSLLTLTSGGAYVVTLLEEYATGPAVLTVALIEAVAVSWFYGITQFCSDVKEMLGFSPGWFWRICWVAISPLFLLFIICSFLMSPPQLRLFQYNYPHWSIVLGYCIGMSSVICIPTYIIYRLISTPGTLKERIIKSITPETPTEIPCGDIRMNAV
The experiment in a line: SERT release assay, rat brain synaptosomes. The data set is classed as biochemical. As to the method: as §1, §2, §3, §4

Data set [5] has as its target Norepinephrine Transporter (NET) (Rattus norvegicus, UniProt Q9WTR4). The data set is classed as biochemical. The conditions noted are these: read-out: EC50, (nM ± SD) NET; release of [3H]MPP+ from rat brain synaptosomes; mean±SD (n=3).
Data set [6] concerns Norepinephrine Transporter (NET). Format: biochemical, rat.
The next data set concerns the target T3, human 5-HT2A receptor (Homo sapiens, UniProt P28223).
T3 construct: expressed in transfected cells
The experiment in a line: 5-HT2A calcium mobilization assay in HEK293 cells (agonist activity). The data set is classed as cell-based. As to the method:
(§5) BAT activity was measured using synaptosomes prepared from rat brain homogenates according to the protocol developed by Rothman and co-workers (Rothman, et al., Eur. J. Pharmacol. 2002, 447(1), 51). Compounds were first screened in uptake inhibition and release assays to determine the exact mode of drug action. Compounds active in both assays are releasers while compounds active only in the uptake inhibition assay are uptake inhibitors. Active compounds were then fully characterized by running 8-point concentration response curves in the assay corresponding to their mechanism of action. Substrate reversal experiments were conducted to validate substrate activity. The analogs were also tested for agonist activity at the serotonin-2 receptor subtypes (5-HT2A, 5-HT2B, 5-HT2C) using in vitro calcium mobilization assays in transfected HEK293 cells as previously described. These receptors are associated with the pharmacology of abused drugs, as 5-HT2A agonists are thought to be hallucinogenic while […] are associated with valvular heart disease and pulmonary hypertension; activity at these receptors would be considered off-target liabilities. On the other hand, agonists at 5-HT2C may be beneficial as potential pharmacotherapies for drug abuse and appetite suppression.
(§6) HEK293 cells stably expressing the human 5-HT2A receptor were used. The day before the assay, cells were plated into 96-well black-walled assay plates at 40,000 cells/well in DMEM-HG supplemented with 10% fetal bovine serum, 100 units of penicillin and streptomycin, and 15 mM HEPES. The cells were incubated overnight at 37° C., 5% CO2. Prior to the assay, Calcium 5 dye (Molecular Devices) was reconstituted according to the manufacturer instructions. The reconstituted dye was diluted 1:40 in pre-warmed (37° C.) assay buffer (1×HBSS, 20 mM HEPES, 2.5 mM probenecid, pH 7.4 at 37° C.). Growth medium was removed and the cells were gently washed with 100 μL of pre-warmed (37° C.) assay buffer. The cells were incubated for 45 minutes at 37° C., 5% CO2 in 200 μL of the diluted Calcium 5 dye. Serial dilutions of the test compounds were prepared in 1% DMSO/assay buffer, aliquoted into 96-well polypropylene plates, and warmed to 37° C. After the dye-loading incubation period, the cells were pre-treated with 25 μL of 9% DMSO/assay buffer and incubated for 15 min at 37° C. After the pre-treatment incubation period, the plate was read with a FlexStation® II (Molecular Devices). Calcium-mediated changes in fluorescence were monitored every 1.52 seconds over a 60 second time period, with the FlexStation® II adding 25 μL of test compound dilutions at the 19 second time point (excitation at 485 nm, detection at 525 nm). Peak kinetic reduction (SoftMax, Molecular Devices) relative fluorescent units (RFU) were plotted against compound concentration. Data were fit to the appropriate three-parameter logistic curve to generate EC50 values (GraphPad Prism 6.0, GraphPad Software, Inc., San Diego, Calif.). 5-HT2B and 5-HT2C calcium mobilization assays were run in the same manner with stable 5-HT2B and 5-HT2C HEK293 cells except that 35,000 cells/well were used instead of 40,000 cells/well.
(A change in cytosolic calcium serves as a functional read-out for many receptors and channels.)

The target in a further data set is T4, 5-HT2B (Homo sapiens, UniProt P41595).
T4 construct: expressed in transfected cells
T4 sequence (P41595 whole entry): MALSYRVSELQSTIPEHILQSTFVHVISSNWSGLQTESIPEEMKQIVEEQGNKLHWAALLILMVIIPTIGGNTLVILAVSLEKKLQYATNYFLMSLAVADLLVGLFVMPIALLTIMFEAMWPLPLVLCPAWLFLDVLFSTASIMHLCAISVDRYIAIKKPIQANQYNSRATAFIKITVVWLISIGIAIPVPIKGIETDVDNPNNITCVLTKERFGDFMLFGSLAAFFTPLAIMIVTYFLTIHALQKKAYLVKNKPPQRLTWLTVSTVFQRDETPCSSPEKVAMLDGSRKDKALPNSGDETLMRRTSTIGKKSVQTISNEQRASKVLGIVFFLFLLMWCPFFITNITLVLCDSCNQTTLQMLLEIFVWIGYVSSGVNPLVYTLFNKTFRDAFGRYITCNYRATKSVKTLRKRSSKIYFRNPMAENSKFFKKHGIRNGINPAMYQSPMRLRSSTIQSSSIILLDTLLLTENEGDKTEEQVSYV
Briefly: 5-HT2B calcium mobilization assay in HEK293 cells (agonist activity). The data set is classed as cell-based. As to the method: as §5, §6

In the next data set the target is T5, 5-HT2C (Homo sapiens, UniProt P28335).
T5 construct: expressed in transfected cells
T5 sequence (P28335 33-458): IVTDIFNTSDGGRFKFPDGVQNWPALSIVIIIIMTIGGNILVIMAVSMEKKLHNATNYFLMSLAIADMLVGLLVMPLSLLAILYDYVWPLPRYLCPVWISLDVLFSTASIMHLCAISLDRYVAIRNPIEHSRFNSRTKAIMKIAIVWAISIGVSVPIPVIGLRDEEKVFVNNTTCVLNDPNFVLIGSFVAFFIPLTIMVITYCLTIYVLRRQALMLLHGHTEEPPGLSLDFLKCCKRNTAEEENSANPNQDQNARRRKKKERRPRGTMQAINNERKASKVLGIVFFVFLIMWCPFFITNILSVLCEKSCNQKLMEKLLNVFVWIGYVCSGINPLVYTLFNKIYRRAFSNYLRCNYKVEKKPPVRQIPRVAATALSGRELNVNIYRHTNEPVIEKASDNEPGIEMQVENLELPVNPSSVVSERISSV
The experiment in a line: 5-HT2C calcium mobilization assay in HEK293 cells (agonist activity). Format: cell-based. The protocol: as §5, §6

The conditions of data set [7]: rhesus monkeys, chronic treatment; progressive-ratio, choice, second-order schedules; cited from earlier work.
The conditions of data set [8]: double-blind, placebo-controlled clinical trial; cited from earlier work.
The subject of the next data set is cortical 5-HT. Particulars: high doses; cited from earlier work.
Setting [9] is: calcium mobilization, agonist, HEK293.

T3 sequence (P28223 whole entry): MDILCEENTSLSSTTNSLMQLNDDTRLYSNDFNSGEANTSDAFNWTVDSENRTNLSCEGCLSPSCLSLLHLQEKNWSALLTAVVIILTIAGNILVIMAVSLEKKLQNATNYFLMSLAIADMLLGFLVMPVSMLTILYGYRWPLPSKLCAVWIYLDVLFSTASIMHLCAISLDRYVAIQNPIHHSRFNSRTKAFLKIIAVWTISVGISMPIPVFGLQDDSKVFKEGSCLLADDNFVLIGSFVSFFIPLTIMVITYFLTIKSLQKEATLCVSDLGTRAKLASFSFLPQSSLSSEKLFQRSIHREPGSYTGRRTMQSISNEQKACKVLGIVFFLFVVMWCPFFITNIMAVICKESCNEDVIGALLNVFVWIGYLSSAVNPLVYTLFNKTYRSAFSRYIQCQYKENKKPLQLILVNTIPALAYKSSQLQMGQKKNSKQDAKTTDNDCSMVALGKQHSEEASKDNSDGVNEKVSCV

As to `CCNC(C)Cc1cccc(C(F)(F)F)c1` (centres unmarked) [fenfluramine], the cue-reinstated cocaine-seeking behavior entry in data set [1] is given as “dose-dependently attenuates cue-reinstated cocaine-seeking behavior”. For the same compound, the cocaine craving result in data set [2] was “significantly reduces cocaine craving”.

What is called EC50 is the concentration at which the effect is half-maximal. Turning to `C[C@@H](N)C/C=C\c1ccccc1` [R-8, (1R,3Z)-1-Methyl-4-phenyl-but-3-enylamine], the EC50 was 1420 nM in [3]; 1160 ± 160 nM in data set [4] (release of [3H]5-HT from rat brain synaptosomes, mean±SD (n=3)); 211 nM in data set [5]; over 10000 nM at human 5-HT2A receptor (calcium mobilization, agonist, HEK293, read-out: 5-HT2A EC50, (nM ± SEM)); over 10000 nM on human 5-HT2A receptor (calcium mobilization, read-out: 5-HT2A EC50); over 10000 nM on 5-HT2B (calcium mobilization, agonist, HEK293, read-out: 5-HT2B EC50, (nM ± SEM)). The EC50 at 5-HT2C (calcium mobilization, agonist, HEK293, read-out: 5-HT2C EC50, (nM ± SEM)) was over 10000 nM. Besides, in [4], the “potency for releasing 5-HT relative to DA (SERT/DAT selectivity)” value is recorded as 1.2 fold. For the same compound, in data set [6], the “selectivity for releasing NE relative to DA (NET compared to DAT)” value came out at 6.7 fold.

For `C[C@H](N)Cc1ccccc1` [compound 1, S(+)-amphetamine, reference compound], the half-maximal effective concentration (EC50) on human 5-HT2A receptor, at 5-HT2B and at 5-HT2C was over 10000 nM in each case. In addition, the “5-HT2A EC50, (nM ± SEM)” value at human 5-HT2A receptor (setting [9]) is “inactive”. In addition, at 5-HT2B (setting [9]), the “5-HT2B EC50, (nM ± SEM)” value is “inactive”. Besides, the “5-HT2C EC50, (nM ± SEM)” value on 5-HT2C (setting [9]) was “inactive”. Besides, in data set [7], the “cocaine self-administration compared to food-maintained responding” value is on record as “selective dose-dependent decrease in cocaine self-administration”. Moreover, the cocaine use result in data set [8] is reported as “decrease in cocaine use”.

As for `CC(N)Cc1ccc2ccccc2c1` (centres unmarked) [compound 2], the “depletion of cortical 5-HT” value in the data set with cortical 5-HT was “do not cause depletion of cortical 5-HT”.

The record behind these values is patent US10899699B2, “Vinylogous phenethylamines as neurotransmitter releasers” (RESEARCH TRIANGLE INSTITUTE, priority 2016, dated 2021).
